Source: US10485235B2, “Aryloxypyrimidinyl ethers as herbicides” (FMC Corporation, priority 2015, dated 2019)

Columns and labels:
Format in all cases: in vivo
[1] = test system: pigweed (Amaranthus retroflexus); experiment: Test A preemergence, pigweed; conditions: Preemergence, 0 to 100 scale (0 no effect, 100 complete control)
Excerpt: (§1) Seeds of plant species selected from barnyardgrass (Echinochloa crus-galli), kochia (Kochia scoparia), ragweed (common ragweed, Ambrosia elatior), ryegrass, Italian (Italian ryegrass, Lolium multiflorum), foxtail, giant (giant foxtail, Setaria faberii), and pigweed (Amaranthus retroflexus), were planted into a blend of loam soil and sand and treated preemergence with a directed soil spray using test chemicals formulated in a non-phytotoxic solvent mixture which included a surfactant.
(§2) At the same time, plants selected from these weed species and also wheat (Triticum aestivum), corn (Zea mays), blackgrass (Alopecurus myosuroides), and galium (catchweed bedstraw, Galium aparine), were planted in pots containing the same blend of loam soil and sand and treated with postemergence applications of test chemicals formulated in the same manner. Plants ranged in height from 2 to 10 cm and were in the one- to two-leaf stage for the postemergence treatment. Treated plants and untreated controls were maintained in a greenhouse for approximately 10 days, after which time all treated plants were compared to untreated controls and visually evaluated for injury. Plant response ratings, summarized in Table A, are based on a 0 to 100 scale where 0 is no effect and 100 is complete control. A dash (—) response means no test result.

[2] = test system: foxtail, giant (giant foxtail, Setaria faberii); experiment: Test A preemergence, giant foxtail; conditions: Preemergence, 0 to 100 scale (0 no effect, 100 complete control)
Excerpt: as §1, §2

[3] = test system: pigweed (Amaranthus retroflexus); experiment: Test A postemergence, pigweed
Excerpt: as §1, §2

[4] = test system: foxtail, giant (giant foxtail, Setaria faberii); experiment: Test A postemergence, giant foxtail
Excerpt: as §1, §2

[5] = test system: ducksalad (Heteranthera limosa); experiment: Test B flooded paddy test, ducksalad; conditions: 250 g ai/ha, Flood; visual rating after 13 to 15 days; scale 0 to 100, 0 is no effect, 100 is complete control
Protocol: (§3) Plant species in the flooded paddy test selected from rice (Oryza sativa), sedge, umbrella (small-flower umbrella sedge, Cyperus difformis), ducksalad (Heteranthera limosa), and barnyardgrass (Echinochloa crus-galli) were grown to the 2-leaf stage for testing. At time of treatment, test pots were flooded to 3 cm above the soil surface, treated by application of test compounds directly to the paddy water, and then maintained at that water depth for the duration of the test. Treated plants and controls were maintained in a greenhouse for 13 to 15 days, after which time all species were compared to controls and visually evaluated. Plant response ratings, summarized in Table B, are based on a scale of 0 to 100 where 0 is no effect and 100 is complete control. A dash (—) response means no test result.

[6] = test system: ragweed (common ragweed, Ambrosia elatior); experiment: Test A preemergence, ragweed; conditions: Preemergence, 0 to 100 scale (0 no effect, 100 complete control)
Excerpt: as §1, §2

kochia (Kochia scoparia) [7] = experiment: Test A postemergence, kochia
Excerpt: as §1, §2

[8] = test system: barnyardgrass (Echinochloa crus-galli); experiment: Test B flooded paddy test, barnyardgrass; conditions: 250 g ai/ha, Flood; visual rating after 13 to 15 days; scale 0 to 100, 0 is no effect, 100 is complete control
Protocol: as §3

[9] = test system: barnyardgrass (Echinochloa crus-galli); experiment: Test A preemergence, barnyardgrass; conditions: Preemergence, 0 to 100 scale (0 no effect, 100 complete control)
Excerpt: as §1, §2

[10] = test system: ragweed (common ragweed, Ambrosia elatior); experiment: Test A postemergence, ragweed
Excerpt: as §1, §2

[11] = test system: ryegrass, Italian (Italian ryegrass, Lolium multiflorum); experiment: Test A postemergence, Italian ryegrass
Excerpt: as §1, §2

corn (Zea mays) = experiment: Test A postemergence, corn
Excerpt: as §1, §2

[12] = test system: galium (catchweed bedstraw, Galium aparine); experiment: Test A postemergence, galium
Excerpt: as §1, §2

[13] = test system: ryegrass, Italian (Italian ryegrass, Lolium multiflorum); experiment: Test A preemergence, Italian ryegrass; conditions: Preemergence, 0 to 100 scale (0 no effect, 100 complete control)
Excerpt: as §1, §2

[14] = test system: barnyardgrass (Echinochloa crus-galli); experiment: Test A postemergence, barnyardgrass
Excerpt: as §1, §2

[15] = test system: wheat (Triticum aestivum); experiment: Test A postemergence, wheat
Excerpt: as §1, §2

rice (Oryza sativa) = experiment: Test B flooded paddy test, rice; conditions: 250 g ai/ha, Flood; visual rating after 13 to 15 days; scale 0 to 100, 0 is no effect, 100 is complete control
Protocol: as §3

[16] = test system: sedge, umbrella (small-flower umbrella sedge, Cyperus difformis); experiment: Test B flooded paddy test, umbrella sedge; conditions: 250 g ai/ha, Flood; visual rating after 13 to 15 days; scale 0 to 100, 0 is no effect, 100 is complete control
Protocol: as §3

[17] = test system: blackgrass (Alopecurus myosuroides); experiment: Test A postemergence, blackgrass
Excerpt: as §1, §2

kochia (Kochia scoparia) [18] = experiment: Test A preemergence, kochia; conditions: Preemergence, 0 to 100 scale (0 no effect, 100 complete control)
Excerpt: as §1, §2

[19] = 125 g ai/ha, postemergence, 0 to 100 scale, 0 is no effect, 100 is complete control, approximately 10 days
[20] = Postemergence, 31 g ai/ha, 0 to 100 scale (0 no effect, 100 complete control)
[21] = 500 g ai/ha, postemergence, 0 to 100 scale, 0 is no effect, 100 is complete control, approximately 10 days
[22] = 31 g ai/ha, postemergence, 0 to 100 scale, 0 is no effect, 100 is complete control, approximately 10 days

O=C(COc1c(Br)cccc1Oc1ncc(Cl)cn1)C(F)(F)C(F)(F)F [Compound 73]
Plant response rating, Pigweed ([1]; 31 g ai/ha): 40 | Plant response rating, Pigweed ([1]; 125 g ai/ha): 50 | Plant response rating, Foxtail, Giant ([2]; 31 g ai/ha): 0 | Plant response rating, Foxtail, Giant ([2]; 125 g ai/ha): 0 | Plant response rating, Pigweed [3, 19]: 60 | Plant response rating, Pigweed [3, 20]: 30 | Plant response rating, Foxtail, Giant [4, 19]: 10 | Plant response rating, Foxtail, Giant [4, 20]: 0 | Plant response rating, Ducksalad [5]: 0 | Plant response rating, Ragweed ([6]; 31 g ai/ha): 0 | Plant response rating, Ragweed ([6]; 125 g ai/ha): 0 | Plant response rating, Kochia (kochia (Kochia scoparia) [7]; [19]): 50 | Plant response rating, Kochia (kochia (Kochia scoparia) [7]; [20]): 0 | Plant response rating, Barnyardgrass [8]: 0 | Plant response rating, Barnyardgrass ([9]; 31 g ai/ha): 0 | Plant response rating, Barnyardgrass ([9]; 125 g ai/ha): 0 | Plant response rating, Ragweed [10, 19]: 0 | Plant response rating, Ragweed [10, 20]: 0 | Plant response rating, Ryegrass, Italian [11, 19]: 0 | Plant response rating, Ryegrass, Italian [11, 20]: 0 | Plant response rating, Corn (corn (Zea mays); [19]): 10 | Plant response rating, Corn (corn (Zea mays); [20]): 0 | Plant response rating, Galium [12, 19]: 40 | Plant response rating, Galium [12, 20]: 10 | Plant response rating, Ryegrass, Italian ([13]; 31 g ai/ha): 0 | Plant response rating, Ryegrass, Italian ([13]; 125 g ai/ha): 0 | Plant response rating, Barnyardgrass [14, 19]: 10 | Plant response rating, Barnyardgrass [14, 20]: 0 | Plant response rating, Wheat [15, 19]: 0 | Plant response rating, Wheat [15, 20]: 0 | Plant response rating, Rice (rice (Oryza sativa)): 0 | Plant response rating, Sedge, Umbrella [16]: 0 | Plant response rating, Blackgrass [17, 19]: 20 | Plant response rating, Blackgrass [17, 20]: 0 | Plant response rating, Kochia (kochia (Kochia scoparia) [18]; 31 g ai/ha): 0 | Plant response rating, Kochia (kochia (Kochia scoparia) [18]; 125 g ai/ha): 0

FC(F)COc1c(Br)cccc1Oc1ncc(Cl)cn1 [Compound 17]
Plant response rating, Pigweed ([1]; 125 g ai/ha): 100 | Plant response rating, Pigweed ([1]; 500 g ai/ha): 100 | Plant response rating, Foxtail, Giant ([2]; 125 g ai/ha): 100 | Plant response rating, Foxtail, Giant ([2]; 500 g ai/ha): 100 | Plant response rating, Pigweed [3, 19]: 100 | Plant response rating, Pigweed [3, 21]: 100 | Plant response rating, Foxtail, Giant [4, 19]: 40 | Plant response rating, Foxtail, Giant [4, 21]: 100 | Plant response rating, Ducksalad [5]: 85 | Plant response rating, Ragweed ([6]; 125 g ai/ha): 0 | Plant response rating, Ragweed ([6]; 500 g ai/ha): 30 | Plant response rating, Kochia (kochia (Kochia scoparia) [7]; [19]): 100 | Plant response rating, Kochia (kochia (Kochia scoparia) [7]; [21]): 100 | Plant response rating, Barnyardgrass [8]: 0 | Plant response rating, Barnyardgrass ([9]; 125 g ai/ha): 80 | Plant response rating, Barnyardgrass ([9]; 500 g ai/ha): 100 | Plant response rating, Ragweed [10, 19]: 0 | Plant response rating, Ragweed [10, 21]: 40 | Plant response rating, Ryegrass, Italian [11, 19]: 0 | Plant response rating, Ryegrass, Italian [11, 21]: 70 | Plant response rating, Corn (corn (Zea mays); [19]): 20 | Plant response rating, Corn (corn (Zea mays); [21]): 50 | Plant response rating, Galium [12, 19]: 30 | Plant response rating, Galium [12, 21]: 80 | Plant response rating, Ryegrass, Italian ([13]; 125 g ai/ha): 10 | Plant response rating, Ryegrass, Italian ([13]; 500 g ai/ha): 70 | Plant response rating, Barnyardgrass [14, 19]: 20 | Plant response rating, Barnyardgrass [14, 21]: 90 | Plant response rating, Wheat [15, 19]: 0 | Plant response rating, Wheat [15, 21]: 20 | Plant response rating, Rice (rice (Oryza sativa)): 0 | Plant response rating, Sedge, Umbrella [16]: 80 | Plant response rating, Blackgrass [17, 19]: 10 | Plant response rating, Blackgrass [17, 21]: 90 | Plant response rating, Kochia (kochia (Kochia scoparia) [18]; 125 g ai/ha): 90 | Plant response rating, Kochia (kochia (Kochia scoparia) [18]; 500 g ai/ha): 100

CCC(=O)COc1c(Br)cccc1Oc1ncc(Cl)cn1 [Compound 76]
Plant response rating, Pigweed ([1]; 31 g ai/ha): 0 | Plant response rating, Pigweed ([1]; 125 g ai/ha): 80 | Plant response rating, Foxtail, Giant ([2]; 31 g ai/ha): 10 | Plant response rating, Foxtail, Giant ([2]; 125 g ai/ha): 70 | Plant response rating, Pigweed [3, 19]: 30 | Plant response rating, Pigweed [3, 20]: 10 | Plant response rating, Foxtail, Giant [4, 19]: 40 | Plant response rating, Foxtail, Giant [4, 20]: 10 | Plant response rating, Ducksalad [5]: 90 | Plant response rating, Ragweed ([6]; 31 g ai/ha): 0 | Plant response rating, Ragweed ([6]; 125 g ai/ha): 0 | Plant response rating, Kochia (kochia (Kochia scoparia) [7]; [19]): 10 | Plant response rating, Kochia (kochia (Kochia scoparia) [7]; [20]): 0 | Plant response rating, Barnyardgrass [8]: 10 | Plant response rating, Barnyardgrass ([9]; 31 g ai/ha): 20 | Plant response rating, Barnyardgrass ([9]; 125 g ai/ha): 40 | Plant response rating, Ragweed [10, 19]: 0 | Plant response rating, Ragweed [10, 20]: 0 | Plant response rating, Ryegrass, Italian [11, 19]: 0 | Plant response rating, Ryegrass, Italian [11, 20]: 0 | Plant response rating, Corn (corn (Zea mays); [19]): 10 | Plant response rating, Corn (corn (Zea mays); [20]): 0 | Plant response rating, Galium [12, 19]: 20 | Plant response rating, Galium [12, 20]: 10 | Plant response rating, Ryegrass, Italian ([13]; 31 g ai/ha): 0 | Plant response rating, Ryegrass, Italian ([13]; 125 g ai/ha): 10 | Plant response rating, Barnyardgrass [14, 19]: 20 | Plant response rating, Barnyardgrass [14, 20]: 0 | Plant response rating, Wheat [15, 19]: 0 | Plant response rating, Wheat [15, 20]: 0 | Plant response rating, Rice (rice (Oryza sativa)): 10 | Plant response rating, Sedge, Umbrella [16]: 70 | Plant response rating, Blackgrass [17, 19]: 10 | Plant response rating, Blackgrass [17, 20]: 0 | Plant response rating, Kochia (kochia (Kochia scoparia) [18]; 31 g ai/ha): 0 | Plant response rating, Kochia (kochia (Kochia scoparia) [18]; 125 g ai/ha): 0

Cc1cccc(Oc2ncc(Cl)cn2)c1OC/C=C/C(F)(F)F [Compound 58]
Plant response rating, Pigweed ([1]; 31 g ai/ha): 0 | Plant response rating, Pigweed ([1]; 125 g ai/ha): 100 | Plant response rating, Foxtail, Giant ([2]; 31 g ai/ha): 40 | Plant response rating, Foxtail, Giant ([2]; 125 g ai/ha): 90 | Plant response rating, Pigweed [3, 22]: 10 | Plant response rating, Pigweed [3, 19]: 30 | Plant response rating, Foxtail, Giant [4, 22]: 20 | Plant response rating, Foxtail, Giant [4, 19]: 70 | Plant response rating, Ducksalad [5]: 100 | Plant response rating, Ragweed ([6]; 31 g ai/ha): 0 | Plant response rating, Ragweed ([6]; 125 g ai/ha): 0 | Plant response rating, Barnyardgrass [8]: 0 | Plant response rating, Barnyardgrass ([9]; 31 g ai/ha): 40 | Plant response rating, Barnyardgrass ([9]; 125 g ai/ha): 90 | Plant response rating, Ragweed [10, 22]: 0 | Plant response rating, Ragweed [10, 19]: 0 | Plant response rating, Ryegrass, Italian [11, 22]: 0 | Plant response rating, Ryegrass, Italian [11, 19]: 0 | Plant response rating, Corn (corn (Zea mays); [22]): 0 | Plant response rating, Corn (corn (Zea mays); [19]): 10 | Plant response rating, Galium [12, 22]: 0 | Plant response rating, Galium [12, 19]: 30 | Plant response rating, Ryegrass, Italian ([13]; 31 g ai/ha): 0 | Plant response rating, Ryegrass, Italian ([13]; 125 g ai/ha): 0 | Plant response rating, Barnyardgrass [14, 22]: 50 | Plant response rating, Barnyardgrass [14, 19]: 70 | Plant response rating, Wheat [15, 22]: 0 | Plant response rating, Wheat [15, 19]: 0 | Plant response rating, Rice (rice (Oryza sativa)): 15 | Plant response rating, Sedge, Umbrella [16]: 100 | Plant response rating, Blackgrass [17, 22]: 0 | Plant response rating, Blackgrass [17, 19]: 30 | Plant response rating, Kochia (kochia (Kochia scoparia) [18]; 31 g ai/ha): 0 | Plant response rating, Kochia (kochia (Kochia scoparia) [18]; 125 g ai/ha): 0
